Consider 26 compounds from patent US9732094B2, “Arylquinazolines” (Merck Patent GmbH, priority 2013, dated 2017).

Where two headings read alike, the source gives them in different places. Some results are limits rather than exact numbers.

For one data set, the target named is Kv11.1 (hERG) (Homo sapiens (Human), UniProt Q12809). The data set is described as follows: Kv11.1 (hERG) ion channel activity (patch clamp assay), HEK293 cells transfected with hERG gene. To be noted: hERG patch clamp assay (cells without asterisk). (hERG is a cardiac potassium channel; its block is linked to QT prolongation.)
Another data set deals with DNA-PK (Homo sapiens (Human), UniProt P78527). The data set is described as follows: DNA-PK assay (biochemical), flashplate 33P-ATP kinase assay. To be noted: biochemical DNA-PK assay. In a few lines:
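Radiometric kinase reaction in streptavidin-coated flashplates, stopped with 200 mM EDTA, then 30 min room-temperature incubation and saline washes.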

Data set [1] addresses DNA-PK phosphorylation at serine 2056 (Homo sapiens (Human), UniProt P78527). In words: DNA-PK phosphorylation at serine 2056 (cellular), bleomycin-treated HCT116 cells, ELISA. The data set is classed as cell-based. To be noted: cellular DNA-PK phosphorylation at serine 2056, HCT116; read-out: IC50 pDNA-PK. Summed up: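 Chemiluminescent ELISA quantified DNA-PK Ser2056 phosphorylation relative to total DNA-PKcs in HCT116 cells. Cells received compounds together with 10 μM bleomycin for 6 h; DMSO served as blank.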
For orientation: ELISA stands for enzyme-linked immunosorbent assay.

Sequence of Kv11.1 (hERG) (Q12809 whole entry): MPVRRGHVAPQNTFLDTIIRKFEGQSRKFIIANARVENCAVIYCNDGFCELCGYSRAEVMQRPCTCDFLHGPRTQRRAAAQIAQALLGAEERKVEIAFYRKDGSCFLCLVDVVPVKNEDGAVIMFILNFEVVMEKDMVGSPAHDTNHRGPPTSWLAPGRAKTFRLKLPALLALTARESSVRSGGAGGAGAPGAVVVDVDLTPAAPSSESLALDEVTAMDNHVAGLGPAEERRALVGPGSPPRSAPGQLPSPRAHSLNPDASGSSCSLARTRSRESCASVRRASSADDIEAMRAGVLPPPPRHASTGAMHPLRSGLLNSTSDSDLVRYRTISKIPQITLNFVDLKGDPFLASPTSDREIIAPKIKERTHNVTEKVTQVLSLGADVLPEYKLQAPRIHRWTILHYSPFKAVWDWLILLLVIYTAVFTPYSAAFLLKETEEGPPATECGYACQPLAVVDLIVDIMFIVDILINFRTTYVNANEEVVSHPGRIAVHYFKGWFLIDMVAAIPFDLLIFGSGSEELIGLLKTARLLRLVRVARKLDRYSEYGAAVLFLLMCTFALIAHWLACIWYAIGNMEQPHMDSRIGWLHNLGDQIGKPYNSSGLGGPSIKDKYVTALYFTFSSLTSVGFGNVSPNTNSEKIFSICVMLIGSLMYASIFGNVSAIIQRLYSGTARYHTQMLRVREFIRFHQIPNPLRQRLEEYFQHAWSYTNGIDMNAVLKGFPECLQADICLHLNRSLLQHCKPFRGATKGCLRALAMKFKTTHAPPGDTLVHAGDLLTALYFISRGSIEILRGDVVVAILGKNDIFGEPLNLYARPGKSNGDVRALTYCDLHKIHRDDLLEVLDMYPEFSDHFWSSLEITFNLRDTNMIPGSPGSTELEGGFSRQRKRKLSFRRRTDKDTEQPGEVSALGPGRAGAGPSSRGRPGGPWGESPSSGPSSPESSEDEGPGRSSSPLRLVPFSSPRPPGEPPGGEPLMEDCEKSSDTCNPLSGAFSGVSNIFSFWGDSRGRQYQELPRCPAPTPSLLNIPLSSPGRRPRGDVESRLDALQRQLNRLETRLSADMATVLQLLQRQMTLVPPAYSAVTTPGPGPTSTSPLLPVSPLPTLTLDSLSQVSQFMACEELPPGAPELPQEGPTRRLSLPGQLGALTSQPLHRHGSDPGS

Broadly, the Ki is the equilibrium dissociation constant of an inhibitor or competing ligand from its target. For orientation: IC50 means the concentration needed to halve the response being measured. On to `Cn1c(C(O)c2cc(-c3ncnc4cc(N5CCOCC5)ccc34)ccc2F)cccc1=O` (stereo not drawn) [Example 365, 6-{[2-Fluoro-5-(7-morpholin-4-yl-quinazolin-4-yl)-phenyl]hydroxy-methyl}-1-methyl-1H-pyridin-2-one], for which the Ki at Kv11.1 (hERG) (read-out: Ki [Kv1.11 hERG]) is > 25000 nM. The IC50 at DNA-PK lay in the range of 3 to 7 nM; in data set [1] it was 500 to 5000 nM.
For `Cn1c(C(O)c2cc(-c3ncnc4cc(N5CCOCC5)ccc34)ccc2F)cccc1=O` (stereo not drawn) [Example 366, 6-{[2-Fluoro-5-(7-morpholin-4-yl-quinazolin-4-yl)-phenyl]hydroxy-methyl}-1-methyl-1H-pyridin-2-one], in that order: > 25000 nM, 7 to 30 nM and 5000 to 10000 nM.
In the case of `O=c1ccc(C(O)c2ccc(F)c(-c3ncnc4cc(N5CCOCC5)ccc34)c2)n[nH]1` (stereo not drawn) [Example 367, 6-{[4-Fluoro-3-(7-morpholin-4-yl-quinazolin-4-yl)-phenyl]hydroxy-methyl}-2H-pyridazin-3-one], the Ki on Kv11.1 (hERG) (read-out: Ki [Kv1.11 hERG]) was > 25000 nM. For the same compound, the IC50 against DNA-PK is < 3 nM; in data set [1], 500 to 5000 nM.
For `Cn1c(C(O)c2cc(-c3ncnc4cc(N5CCOCC5)ccc34)c(F)cc2Cl)nccc1=O` (stereo not drawn) [Example 368, 2-{[2-Chloro-4-fluoro-5-(7-morpholin-4-yl-quinazolin-4-yl)-phenyl]hydroxy-methyl}-3-methyl-3H-pyrimidin-4-one], in that order: > 25000 nM, 7 to 30 nM and 5000 to 10000 nM.
`OC(c1cc(-c2ncnc3cc(N4CCOCC4)ccc23)ccc1Cl)c1nccn2ccnc12` (stereo not drawn) [Example 369, [2-Chloro-5-(7-morpholin-4-yl-quinazolin-4-yl)-phenyl]imidazo-[1,2-a]pyrazin-8-yl-methanol] came in with a Ki at Kv11.1 (hERG) (Ki [Kv1.11 hERG]) of 15000 to 25000 nM. Also, the IC50 was in the range of 7 to 30 nM against DNA-PK and 5000 to 10000 nM in data set [1].
Consider `Cn1cnc2c(C(O)c3cc(-c4ncnc5cc(N6CCOCC6)ccc45)ccc3F)ncnc21` (stereo not drawn) [Example 370, [2-Fluoro-5-(7-morpholin-4-yl-quinazolin-4-yl)-phenyl]-(9-methyl-9H-purin-6-yl)-methanol], for which the Ki on Kv11.1 (hERG) (read-out: Ki [Kv1.11 hERG]) was > 25000 nM. The IC50 against DNA-PK is 7 to 30 nM; in data set [1], 500 to 5000 nM.
The compound `Cn1cnc2c(C(O)c3cc(-c4ncnc5cc(N6CCOCC6)ccc45)ccc3Cl)ncnc21` (stereo not drawn) [Example 371, [2-Chloro-5-(7-morpholin-4-yl-quinazolin-4-yl)-phenyl]-(9-methyl-9H-purin-6-yl)-methanol] had an inhibition constant (Ki) at Kv11.1 (hERG) (Ki [Kv1.11 hERG]) of 10000 to 15000 nM. The IC50 at DNA-PK is 7 to 30 nM; in data set [1] it was 500 to 5000 nM.
Consider `OC(c1cc(-c2ncnc3cc(N4CCOCC4)ccc23)ccc1F)c1nccn2ccnc12` (stereo not drawn) [Example 372, [2-Fluoro-5-(7-morpholin-4-yl-quinazolin-4-yl)-phenyl]imidazo-[1,2-a]pyrazin-8-yl-methanol], for which the Ki on Kv11.1 (hERG) (read-out: Ki [Kv1.11 hERG]) was > 25000 nM. Besides, the IC50 on DNA-PK lay in the range of 7 to 30 nM; in data set [1], 500 to 5000 nM.
In the case of `OC(c1cc(-c2ncnc3cc(N4CCOCC4)ccc23)ccc1F)c1cccc2nncn12` (stereo not drawn) [Example 373, [2-Fluoro-5-(7-morpholin-4-yl-quinazolin-4-yl)-phenyl]-[1,2,4]-triazolo[4,3-a]pyridin-5-ylmethanol], on Kv11.1 (hERG) (Ki [Kv1.11 hERG]), the Ki is 15000 to 25000 nM. Besides, the IC50 at DNA-PK lay in the range of 3 to 7 nM; in data set [1] it was 500 to 5000 nM.
For `OC(c1cc(-c2ncnc3cc(N4CCOCC4)ccc23)ccc1F)c1ncnc2ccoc12` (stereo not drawn) [Example 374, [2-Fluoro-5-(7-morpholin-4-yl-quinazolin-4-yl)-phenyl]furo[3,2-d}-pyrimidin-4-yl-methanol], in that order: 15000 to 25000 nM, < 3 nM and 500 to 5000 nM.
With `Cn1c(C(O)c2ccc(F)c(-c3ncnc4cc(N5CCOCC5)ccc34)c2)cccc1=O` (stereo not drawn) [Example 375, 6-{[4-Fluoro-3-(7-morpholin-4-yl-quinazolin-4-yl)-phenyl]hydroxy-methyl}-1-methyl-1H-pyridin-2-one], the Ki on Kv11.1 (hERG) (read-out: Ki [Kv1.11 hERG]) was > 25000 nM. In addition, the IC50 on DNA-PK was < 3 nM; in data set [1] it was 500 to 5000 nM.
In the same order, the values of `Cn1c(C(O)c2ccc(F)c(-c3ncnc4cc(N5CCOCC5)ccc34)c2)cccc1=O` (stereo not drawn) [Example 376, 6-{[4-Fluoro-3-(7-morpholin-4-yl-quinazolin-4-yl)-phenyl]hydroxy-methyl}-1-methyl-1H-pyridin-2-one] are > 25000 nM, < 3 nM and < 500 nM.
Regarding `Cc1cncnc1C(C(N)=O)c1cc(-c2ncnc3cc(N4CCOCC4)ccc23)ccc1Cl` (stereo not drawn) [Example 377, 2-[2-Chloro-5-(7-morpholin-4-yl-quinazolin-4-yl)-phenyl]-2-(5-methyl-pyrimidin-4-yl)-acetamide], at Kv11.1 (hERG) (Ki [Kv1.11 hERG]), the Ki fell in the range of 15000 to 25000 nM. Further, the figures for the IC50 (at DNA-PK; in data set [1]) were 3 to 7 nM and 500 to 5000 nM, respectively.
With `Cc1cncnc1C(C(N)=O)c1cc(-c2ncnc3cc(N4CCOCC4)ccc23)ccc1Cl` (stereo not drawn) [Example 378, 2-[2-Chloro-5-(7-morpholin-4-yl-quinazolin-4-yl)-phenyl]-2-(5-methyl-pyrimidin-4-yl)-acetamide], the Ki at Kv11.1 (hERG) (read-out: Ki [Kv1.11 hERG]) was > 25000 nM. Besides, the IC50 was in the range of 3 to 7 nM on DNA-PK and 500 to 5000 nM in data set [1].
Consider `OC(c1cc(-c2ncnc3cc(N4CCOCC4)ccc23)c(F)cc1F)c1nnc2ccccn12` (stereo not drawn) [Example 379, [2,4-Difluoro-5-(7-morpholin-4-yl-quinazolin-4-yl)-phenyl]-[1,2.4]-triazolo[4,3-a]pyridin-3-ylmethanol], for which the Ki at Kv11.1 (hERG) (read-out: Ki [Kv1.11 hERG]) was > 25000 nM. Also, the results for the IC50 (against DNA-PK; in data set [1]) were 3 to 7 nM and 500 to 5000 nM, respectively.
For `Cn1c(C(O)c2cc(-c3ncnc4cc(N5CCOCC5)ccc34)c(F)cc2F)cccc1=O` (stereo not drawn) [Example 380, 6-{[2,4-Difluoro-5-(7-morpholin-4-yl-quinazolin-4-yl)-phenyl]hydroxy-methyl}-1-methyl-1H-pyridin-2-one], in that order: > 25000 nM, 3 to 7 nM and 500 to 5000 nM.
Consider `Cn1c(C(O)c2cc(-c3ncnc4cc(N5CCOCC5)ccc34)c(F)cc2F)cccc1=O` (stereo not drawn) [Example 381, 6-{[2,4-Difluoro-5-(7-morpholin-4-yl-quinazolin-4-yl)-phenyl]hydroxy-methyl}-1-methyl-1H-pyridin-2-one], for which the Ki on Kv11.1 (hERG) (read-out: Ki [Kv1.11 hERG]) is > 25000 nM. For the same compound, the IC50 is < 3 nM on DNA-PK and 500 to 5000 nM in data set [1].
`Cn1c(C(O)c2cc(-c3ncnc4cc(N5CCOCC5)ccc34)c(F)cc2Cl)cccc1=O` (stereo not drawn) [Example 382, 6-{[2-Chloro-4-fluoro-5-(7-morpholin-4-yl-quinazolin-4-yl)-phenyl]hydroxy-melhyl}-1-methyl-1H-pyridin-2-one] returned a Ki at Kv11.1 (hERG) (Ki [Kv1.11 hERG]) of 15000 to 25000 nM. Also, the IC50 fell in the range of 7 to 30 nM on DNA-PK and 500 to 5000 nM in data set [1].
Consider `Cn1c(C(O)c2cc(-c3ncnc4cc(N5CCOCC5)ccc34)c(F)cc2Cl)cccc1=O` (stereo not drawn) [Example 383, 6-{[2-Chloro-4-fluoro-5-(7-morpholin-4-yl-quinazolin-4-yl)-phenyl]hydroxy-methyl}-1-methyl-1H-pyridin-2-one], for which, at Kv11.1 (hERG) (read-out: Ki [Kv1.11 hERG]), the Ki was > 25000 nM. The IC50 at DNA-PK is < 3 nM; in data set [1], < 500 nM.
For `Cn1cnc2ncnc([C@H](O)c3cc(-c4ncnc5cc(N6CCOCC6)ccc45)c(F)cc3F)c21` [Example 384, (R)-[2,4-Difluoro-5-(7-morpholin-4-yl-quinazolin-4-yl)-phenyl]-(7-methyl-7H-purin-6-yl)-methanol], in that order: > 25000 nM, 7 to 30 nM and 10000 to 30000 nM.
For `Cn1ncc2c(C(O)c3cc(-c4ncnc5cc(N6CCOCC6)ccc45)ccc3Cl)ncnc21` (stereo not drawn) [Example 385, [2-Chloro-5-(7-morpholin-4-yl-quinazolin-4-yl)-phenyl]-(1-methyl-1H-pyrazolo[3,4-d}-pyrimidin-4-yl)-methanol], in that order: > 25000 nM, 7 to 30 nM and 500 to 5000 nM.
Take `OC(c1cc(-c2ncnc3cc(N4CCOCC4)ccc23)c(F)cc1F)c1ncnc2c1CCNC2` (stereo not drawn) [Example 387, [2,4-Difluoro-5-(7-morpholin-4-yl-quinazolin-4-yl)-phenyl]-(5,6,7,8-tetrahydropyrido-[3,4-d}pyrimidin-4-yl)-methanol]: the Ki on Kv11.1 (hERG) (Ki [Kv1.11 hERG]) lay within 15000 to 25000 nM. For the same compound, the IC50 was in the range of 7 to 30 nM against DNA-PK and 500 to 5000 nM in data set [1].
For `OC(c1ccc(F)c(-c2ncnc3cc(N4CCOCC4)ccc23)c1)c1ncnc2c1CCNC2` (stereo not drawn) [Example 388, [4-Fluoro-3-(7-morpholin-4-yl-quinazolin-4-yl)-phenyl]-(5,6,7,8-tetrahydropyrido-[3,4-d}pyrimidin-4-yl)-methanol], in that order: 10000 to 15000 nM, 7 to 30 nM and 500 to 5000 nM.
In the same order, the values of `OC(c1cc(-c2ncnc3cc(N4CCOCC4)ccc23)ccc1Cl)c1ncncc1F` (stereo not drawn) [Example 389, [2-Chloro-5-(7-morpholin-4-yl-quinazolin-4-yl)-phenyl]-(5-fluoro-pyrimidin-4-yl)-methanol] are 10000 to 15000 nM, 7 to 30 nM and 5000 to 10000 nM.
In the same order, the values of `OC(c1cc(-c2ncnc3cc(N4CCOCC4)ccc23)ccc1Cl)c1ncncc1F` (stereo not drawn) [Example 390, [2-Chloro-5-(7-morpholin-4-yl-quinazolin-4-yl)-phenyl]-(5-fluoro-pyrimidin-4-yl)-methanol] are 15000 to 25000 nM, 3 to 7 nM and 500 to 5000 nM.
At Kv11.1 (hERG) (Ki [Kv1.11 hERG]), `Cn1ncc2c(C(O)c3cc(-c4ncnc5cc(N6CCOCC6)ccc45)ccc3F)ncnc21` (stereo not drawn) [Example 391, [2-Fluoro-5-(7-morpholin-4-yl-quinazolin-4-yl)-phenyl]-(1-methyl-1H-pyrazolo[3,4-d}-pyrimidin-4-yl)-methanol] returned a Ki of 15000 to 25000 nM. In addition, the IC50 lay within 7 to 30 nM against DNA-PK and 500 to 5000 nM in data set [1].
